A short description of this data set: gradient 5% acetonitrile 3 min, to 50% in 2 min, to 85% in 15 min, held 3 min, 100 µL/min. The conditions noted are these: column: Zorbax Extend-C18 2.1 x 50 mm; eluents: water / acetonitrile, 0.1% formic acid. In short, it runs like this: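 In both positive and negative ionization mode, a quadrupole time-of-flight mass spectrometer coupled to HPLC analyzed pure standards run in mixtures of ~100 molecules. The Zorbax Extend-C18 column (2.1 × 50 mm, 1.8 μm) was operated at 100 μL/min with water and acetonitrile, each containing 0.1% formic acid. The dead volume was 40 μL and the dwell volume 900 μL. Retention time came from adduct peaks that were computationally picked and individually inspected by hand.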
On to `Cc1ccc(Cn2c(=O)c3nn(C)cc3n3c(=O)n(Cc4ccc(N5CCCC5=O)cc4)nc23)cc1`, for which the RP-LC retention time amounted to 812 s.
To `Cc1ccc(S(=O)(=O)N2CCCN(c3ccc(=O)n(-c4ccc(F)cc4)n3)CC2)cc1C` belongs 937 s.
Next, `COc1ccc(OCC(=O)N(C)CCc2noc(C3CCCCC3)n2)cc1`: 912 s.
To `COc1ccc(Cl)cc1C(=O)Nc1ccc2c(c1)C(=O)NCCO2` belongs 951 s; to `O=C(CSc1nc2ccccc2o1)OCc1cc(-c2ccc3c(c2)OCCO3)on1`, 1000 s; to `Cc1oc(-c2ccc(OC(C)C)cc2)nc1CN(c1ccccc1)S(=O)(=O)c1cccs1`, 1290 s.
`O=C(CSc1ccncc1)N1CCCn2nc(-c3ccc(Cl)cc3)cc2C1` gave an RP-LC retention time of 661 s.
To `CCOC(=O)Cn1cccc(S(=O)(=O)N2CCC(C)CC2)c1=O` belongs 814 s; to `COc1ccc(-c2ccc(N3CCN(C(=O)Cc4cn(C)c5ccccc45)CC3)nn2)cc1`, 656 s; to `Cc1ccc(NC(=O)Cn2c(=O)nc(N3CCC(C)CC3)c3ccccc32)c(C)c1`, 913 s.
As for `Cc1nc2nc(-c3ccc(C(C)(C)C)cc3)nn2c(C)c1CC(=O)N(CCO)Cc1ccccc1`, the RP-LC retention time was determined as 982 s.
`CCOc1ccccc1CNC(=O)Cn1c(CC)nc2onc(C)c2c1=O` displayed an RP-LC retention time of 865 s.
Next, `CCOC(=O)c1csc(NC(=O)C2CCCN2S(C)(=O)=O)n1` (stereo not given): 649 s; `O=C(NCc1ccccn1)c1ccc(-c2nc3cccnc3n(C3CCCC3)c2=O)cc1`: 778 s.
Regarding `Cc1cc(C(=O)NCc2ccc(C)o2)c2ccccc2n1`, the RP-LC retention time was found to be 634 s.
In turn, `CC(C)Cn1c(=O)c(N2CCN(C(=O)c3nccc4ccccc34)CC2)nc2ccncc21` showed an RP-LC retention time of 646 s.
`Cc1oc(-c2ccc(NC(=O)Cc3cccc(F)c3)cc2)nc1Cn1cccn1` showed an RP-LC retention time of 814 s.
To `COC(=O)c1[nH]c(C)c(C(=O)C(C)N(C(=O)c2ccc(C)cc2)C2CCCCC2)c1C` (stereo not given) belongs 1050 s.
To `Cc1c(Cl)cccc1NC(=O)C1CCN(c2cc(-n3ccnc3C)ncn2)CC1` belongs 581 s; to `O=c1ccn(-c2cccc(F)c2)nc1-c1nc(-c2cccc(Br)c2)no1`, 995 s.
Take `CS(=O)(=O)N(C1CCOCC1)C1CN(C(=O)COc2ccccc2)C1`: the RP-LC retention time was found to be 692 s.
In turn, `C(=C\c1ccccn1)/c1ccccn1` showed an RP-LC retention time of 590 s.
To `O=C(c1cncc(Br)c1)N1CCC(c2nnc(-c3ccco3)s2)CC1` belongs 682 s; to `Cc1cc(C2CCCN2C(=O)Nc2cccc(Cl)c2C)on1` (stereo not given), 794 s.
Compound `CN(C)CCNC(=O)c1ccc(CS(=O)(=O)c2c(Cl)cccc2Cl)o1` came in with an RP-LC retention time of 595 s.
For `O=C(Cn1c(=O)nc(-c2ccccc2)c2ccccc21)NCCc1ccccn1`, the RP-LC retention time came to 590 s.
Next, `CCc1nn2c(CNS(=O)(=O)c3ccc(F)c(C)c3)c(-c3ccccc3)nc2s1`: 974 s; `CC(=O)Nc1ccc2c(c1)CN(C(=O)c1ccc(C)cc1C)C(C(=O)N(C)C)C2` (stereo not given): 778 s.
To `Cc1noc(C)c1CC(=O)N1CCOc2ccc(N(C)C)cc2C1` belongs 584 s; to `COc1ccc(N2CCN(C(=O)NC3CCOCC3)CC2)cc1`, 599 s; to `CN1CCN(CCNC(=O)c2cccc(N3CCNC(c4ccccc4)C3)n2)CC1` (stereo not given), 549 s.
To `Cc1nc(-c2ccccc2)cc2nn(CC(=O)Nc3ccc4c(c3)OCO4)c(=O)n12` belongs 719 s; to `CCOc1ccc(-c2ccc(=O)n(CCc3nc(-c4cc(OC)cc(OC)c4)no3)n2)cc1`, 1020 s; to `CCOc1cccc(-c2noc(Cn3nc(-c4ccc(OC)cc4)ccc3=O)n2)c1`, 1030 s.
For the compound `Cn1cc(C(=O)N2CC(c3noc(C4CCCN4CC4CC4)n3)C2)cn1` (stereo not given), the RP-LC retention time was 549 s.
For `COCc1nncn1C1CCN(S(=O)(=O)c2ccc(C)c(Cl)c2)CC1`, the RP-LC retention time amounted to 770 s.
To `Cc1ccc(NC(=O)N2CCC(c3nc(C(=O)N(C)C)c(C)o3)CC2)cc1Cl` belongs 799 s; to `COc1ccc(-c2nnc(-c3ccc(C)c(S(=O)(=O)NCc4cccnc4)c3)o2)cc1OC`, 660 s.
To `CCOC(=O)CNC(=O)N1CCCC1c1ccccc1C` (stereo not given) belongs 768 s; to `COc1cccc(-c2nc(C3CCN(S(=O)(=O)c4cccc(Cl)c4)CC3)no2)c1`, 1160 s.
Next, `O=C(Cc1cccs1)NCc1cc(-c2ccc(Cl)cc2)on1`: 858 s; `COc1ccc(CNC(=O)c2nnc(-c3ccc(S(=O)(=O)N4CCC(C)CC4)cc3)o2)cc1`: 1020 s.
As to `O=C(Cc1csc(SCc2ccc(Br)cc2)n1)NCc1cccs1`, the RP-LC retention time was 978 s.
To `Cc1nc2cc(-c3noc(-c4cccc(C#N)c4)n3)ccc2o1` belongs 977 s.
`CN1C(=O)CC2(C)C1=CCc1scnc12` (stereo not given) registered an RP-LC retention time of 636 s.
Next, `COc1ccc(NC(=O)N(C)CCc2noc(COc3ccccc3F)n2)c(OC)c1`: 877 s; `CCn1cnc(S(=O)(=O)N2CCC(C(=O)NCc3ccc(C)cc3)CC2)c1`: 797 s.
Next, `Fc1ccc(OCc2nnc3sc(-c4ccccn4)nn23)cc1`: 846 s.
To `CCC(=O)N(C1CCOCC1)C1CCN(S(=O)(=O)c2ccccc2CC)CC1` belongs 908 s.
In the case of `COCCN1CC(CO)C2(CCN(Cc3cccc(Cl)c3)CC2)C1` (stereo not given), the RP-LC retention time was determined as 531 s.
Next, `COC[C@@H](NC(C)=O)C(=O)NCc1ccccc1`: 641 s.
As for `Cc1cc2c(=O)n(CC(=O)Nc3cccc(Cl)c3)c3cccnc3n2n1`, the RP-LC retention time stood at 742 s.
`Fc1ccc(CN2CCCCC2c2nc(-c3cnccn3)no2)cc1F` (stereo not given) gave an RP-LC retention time of 849 s.
To `CCN1CCN(c2c(S(=O)(=O)c3ccc(Cl)cc3)cnc3cc4c(cc23)OCCO4)CC1` belongs 660 s; to `COc1cc(OC)c(-n2nnc(-c3nsc(Nc4ccc(OC)c(OC)c4)n3)c2C)cc1Cl`, 928 s; to `O=C(NCCN1CCN(S(=O)(=O)c2ccccc2)CC1)c1c(F)cccc1Cl`, 574 s.
Next, `CCOC(=O)C1=C(CN2CCN(c3ccccn3)CC2)NC(=O)NC1c1ccccc1` (stereo not given): 596 s; `CS(=O)(=O)c1ccc(CC(=O)N2CC(Cc3nncn3CC3CC3)C2)cc1`: 592 s; `c1cc(-c2noc(C3CCOCC3)n2)ccc1OC1CNC1`: 640 s.
Next, `O=C(CC1CCN(C(=O)NC2CCCC2)CC1)N1CCCCC1`: 695 s.

The values above are taken from the METLIN SMRT retention time set (Domingo-Almenara et al. 2019).
